Data set [1] in a line: Cytotoxicity against human ECA109 cells assessed as decrease in cell proliferation after 48 hrs by MTT assay. The class given is functional, cell-based. As to conditions: ECa-109, 48 h.
Data set [2] in a line: Cytotoxicity against human HeLa cells assessed as decrease in cell proliferation after 48 hrs by MTT assay. The class given is functional, cell-based.
Data set [3] can be described thus: Cytotoxicity against HEEC assessed as decrease in cell proliferation after 48 hrs by MTT assay. As to conditions: human, HEEC cells. The data set is classed as toxicity. On the technique in general: Tetrazolium assays rely on reduction of a dye to a coloured formazan, in cell work by metabolically active cells.
Data set [4] addresses T1, DNA topoisomerase 1 (Homo sapiens) (UniProt P11387).
T1 sequence (whole entry): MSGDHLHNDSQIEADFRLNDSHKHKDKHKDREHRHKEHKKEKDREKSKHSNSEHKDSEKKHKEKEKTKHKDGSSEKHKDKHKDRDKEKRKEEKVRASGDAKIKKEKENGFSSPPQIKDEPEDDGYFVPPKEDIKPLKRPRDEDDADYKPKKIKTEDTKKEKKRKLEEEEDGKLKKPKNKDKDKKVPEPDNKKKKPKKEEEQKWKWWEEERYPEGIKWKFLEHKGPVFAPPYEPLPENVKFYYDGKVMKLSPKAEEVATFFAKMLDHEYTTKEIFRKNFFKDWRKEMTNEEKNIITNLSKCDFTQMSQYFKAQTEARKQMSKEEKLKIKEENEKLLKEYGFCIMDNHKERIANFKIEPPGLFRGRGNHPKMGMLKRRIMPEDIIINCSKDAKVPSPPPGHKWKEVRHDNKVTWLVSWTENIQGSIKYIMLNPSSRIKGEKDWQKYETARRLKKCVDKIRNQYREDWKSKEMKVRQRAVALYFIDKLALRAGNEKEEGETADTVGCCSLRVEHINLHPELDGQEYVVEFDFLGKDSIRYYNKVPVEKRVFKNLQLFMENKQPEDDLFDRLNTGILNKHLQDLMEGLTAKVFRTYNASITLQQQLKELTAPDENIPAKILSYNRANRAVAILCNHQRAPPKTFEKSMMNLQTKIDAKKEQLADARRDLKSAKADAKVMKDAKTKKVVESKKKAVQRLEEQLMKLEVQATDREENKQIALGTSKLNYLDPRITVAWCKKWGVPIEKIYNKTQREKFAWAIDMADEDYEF
The experiment in a line: Inhibition of DNA topoisomerase-1 (unknown origin)-mediated supercoiled pBR322 DNA relaxation at 25 uM after 30 mins by agarose gel electrophoresis.

Data set [5] relates to HeLa. Nature of the data set: Induction of apoptosis in human HeLa cells assessed as chromatin condensation at IC50 after 48 hrs by Hoechst 33342 staining-based fluorescence microscopic method. The data set is classed as functional, cell-based.
Data set [6] has as its system HeLa. Nature of the data set: Induction of apoptosis in human HeLa cells assessed as chromatin fragmentation at IC50 after 48 hrs by Hoechst 33342 staining-based fluorescence microscopic method. The class given is functional, cell-based.
In data set [7] the target is T1, DNA topoisomerase 1 (Homo sapiens). Nature of the data set: Inhibition of DNA topoisomerase-1 (unknown origin)-mediated supercoiled pBR322 DNA relaxation at 5 uM after 30 mins by agarose gel electrophoresis.
The target is the same in data set [8]. Nature of the data set: Inhibition of DNA topoisomerase-1 (unknown origin)-mediated supercoiled pBR322 DNA relaxation at 100 uM after 30 mins by agarose gel electrophoresis.

The source made the active and inactive calls. The calls are words filed in the database; no cut-off is given here.

As usually defined, the IC50 is the concentration at which inhibition is half-maximal.

In the case of `Cc1[nH]c2ccccc2c1C(C1=C(O)C(=O)c2ccccc2C1=O)c1ccc(Cl)cc1` (stereo not given), the IC50 in data set [1] came to 14.3 µM; in data set [2], 8.03 µM. In addition, the IC50 at 48 h in data set [3] came to 40.2 µM.

As for `O=C1C(O)=C(C(c2ccc([N+](=O)[O-])cc2)c2c[nH]c3ccccc23)C(=O)c2ccccc21` (stereo not given), the values for the IC50 in data set [1] and in data set [2] were 60.9 µM and 14.8 µM, respectively. In addition, in data set [3], the IC50 at 48 h was greater than 200 µM.

In the case of `O=C1C(O)=C(C(c2ccccc2)c2c(-c3ccccc3)[nH]c3ccccc23)C(=O)c2ccccc21` (stereo not given), the concentration for half-maximal inhibition (IC50) in data set [1] turned out to be 5.18 µM; in data set [2], 18.8 µM. Besides, the IC50 at 48 h in data set [3] was 26.4 µM.

With `Cc1[nH]c2ccccc2c1C(C1=C(O)C(=O)c2ccccc2C1=O)c1ccc([N+](=O)[O-])cc1` (stereo not given), the IC50 in data set [1] stood at 6 µM; in data set [2], 4.57 µM. Moreover, the IC50 at 48 h in data set [3] came to 15.1 µM. Also, the inhibition entry in data set [4] was “Active”. In addition, the outcome in the data set on HeLa [5] and in the data set on HeLa [6] was Active.

With `COc1ccccc1C(C1=C(O)C(=O)c2ccccc2C1=O)c1c[nH]c2ccccc12` (stereo not given), the values for the half-inhibitory concentration (IC50) in data set [1] and in data set [2] were greater than 200 µM and 128 µM, respectively. The IC50 at 48 h in data set [3] was greater than 200 µM.

On to `COc1cccc(C(C2=C(O)C(=O)c3ccccc3C2=O)c2c[nH]c3ccccc23)c1` (stereo not given), for which the IC50 in data set [1] came out at 40 µM; in data set [2], 25.6 µM. In addition, in data set [3], the IC50 at 48 h is 110 µM.

For the molecule `O=C1C(O)=C(C(c2cccs2)c2c[nH]c3ccccc23)C(=O)c2ccccc21` (stereo not given), the IC50 stood at 12.1 µM in data set [1] and 12.4 µM in data set [2]. For the same molecule, the concentration for half-maximal inhibition (IC50) at 48 h in data set [3] came out at 31.2 µM.

As to `CC[C@@]1(O)C(=O)OCc2c1cc1n(c2=O)Cc2cc3ccccc3nc2-1` [CAMPTOTHECIN], the values for the IC50 in data set [1] and in data set [2] were 9.52 µM and 11.4 µM, respectively. For the same molecule, the concentration for half-maximal inhibition (IC50) at 48 h in data set [3] was found to be 17.7 µM.

Take `O=C1C(O)=C(C(c2cccc([N+](=O)[O-])c2)c2c[nH]c3ccccc23)C(=O)c2ccccc21` (stereo not given): the IC50 in data set [1] amounted to 36.1 µM; in data set [2] it was 24.9 µM. In addition, the IC50 at 48 h in data set [3] is 91.2 µM.

As for `COc1ccc(C(C2=C(O)C(=O)c3ccccc3C2=O)c2c[nH]c3ccccc23)cc1Br` (stereo not given), the values for the IC50 in data set [1] and in data set [2] were 11.8 µM and 7.32 µM, respectively. Besides, the IC50 at 48 h in data set [3] worked out at 25.2 µM. The inhibition result in data set [4] is “Active”.

As for `O=C1C(O)=C(C(c2ccc([N+](=O)[O-])cc2)c2c(-c3ccccc3)[nH]c3ccccc23)C(=O)c2ccccc21` (stereo not given), the IC50 in data set [1] stood at 5.08 µM; in data set [2], 6.77 µM. Also, the IC50 at 48 h in data set [3] worked out at 14.2 µM. In data set [7], the inhibition result is “Active”. Besides, the result with HeLa [5] and with HeLa [6] was Active.

As to `COc1cc(C(C2=C(O)C(=O)c3ccccc3C2=O)c2c[nH]c3ccc(Br)cc23)cc(OC)c1OC` (stereo not given), the IC50 in data set [1] is 13 µM; in data set [2], 9.71 µM. In data set [3], the IC50 at 48 h was 36.3 µM. Besides, the inhibition result in data set [8] is “Active”.

Take `O=C1C(O)=C(C(c2cccc([N+](=O)[O-])c2)c2c(-c3ccccc3)[nH]c3ccccc23)C(=O)c2ccccc21` (stereo not given): the IC50 was determined as 5.83 µM in data set [1] and 12.5 µM in data set [2]. In addition, the concentration for half-maximal inhibition (IC50) at 48 h in data set [3] is 13.4 µM. For the same molecule, the inhibition result in data set [4] is “Active”.

For the molecule `O=C1C(O)=C(C(c2ccc(Cl)cc2)c2c[nH]c3ccccc23)C(=O)c2ccccc21` (stereo not given), the results for the IC50 in data set [1] and in data set [2] were 45.8 µM and 37 µM, respectively. For the same molecule, in data set [3], the IC50 at 48 h amounted to 102 µM.

Consider `CC(C)=CCC1=C(O)C(=O)c2ccccc2C1=O` [LAPACHOL], for which the IC50 amounted to 12.6 µM in data set [1] and 20.4 µM in data set [2]. The half-inhibitory concentration (IC50) at 48 h in data set [3] worked out at 20.2 µM.

For `O=C1C(O)=C(C(c2ccc(F)cc2)c2c[nH]c3ccccc23)C(=O)c2ccccc21` (stereo not given), the IC50 is 28.1 µM in data set [1] and 15.8 µM in data set [2]. Further, the IC50 at 48 h in data set [3] amounted to 65.2 µM.

Regarding `O=C1C(O)=C(C(c2ccc([N+](=O)[O-])cc2)c2c[nH]c3ccc(Br)cc23)C(=O)c2ccccc21` (stereo not given), the IC50 in data set [1] is 16.9 µM; in data set [2], 14.1 µM. The 50% inhibitory concentration (IC50) at 48 h in data set [3] was determined as 45.2 µM.

The values above are taken from ChEMBL document CHEMBL3860081, “Design, synthesis and biological evaluation of lapachol derivatives possessing indole scaffolds as topoisomerase I inhibitors” (Bioorg Med Chem, 2016).
